Measurements from ChEMBL document CHEMBL4219206, “Novel thioureido-benzenesulfonamide derivatives with enaminone linker as potent anticancer, radiosensitizers and VEGFR2 inhibitors” (Bioorg Med Chem Lett, 2018).

Legend:
[1] = system: HepG2; assay: cells; conditions: Homo sapiens, HepG2, 24 h
Description: Antiproliferative activity against human HepG2 cells after 24 hrs by MTT assay

[2] = system: HepG2; assay: cells; conditions: Homo sapiens, HepG2, light or radiation study
Description: Phototoxicity against human HepG2 cells assessed as reduction in cell viability pretreated for 2 hrs followed by 8 Gy gamma irradiation for 17.73 mins measured after 48 hrs by MTT assay

IC50 [1]	IC50 [2]	Structure (SMILES)
1900 nM		CCOC(=O)N/C=C/C(=O)c1cccc(NC(=S)Nc2ccc(S(=O)(=O)Nc3ccccn3)cc2)c1
2900 nM		O=C(/C=C/Nc1ccccc1O)c1cccc(NC(=S)Nc2ccc(S(=O)(=O)Nc3ccccn3)cc2)c1
3900 nM		O=C(/C=C/Nc1ccccc1)c1ccc(NC(=S)Nc2ccc(S(=O)(=O)Nc3ccccn3)cc2)cc1
1200 nM		O=C(/C=C/Nc1ccc(F)cc1)c1cccc(NC(=S)Nc2ccc(S(=O)(=O)Nc3ccccn3)cc2)c1
2300 nM		O=C(/C=C/NCc1ccccc1)c1ccc(NC(=S)Nc2ccc(S(=O)(=O)Nc3ccccn3)cc2)cc1
4700 nM		O=C(/C=C/Nc1ccccc1)c1cccc(NC(=S)Nc2ccc(S(=O)(=O)Nc3ccccn3)cc2)c1
1400 nM		O=C(/C=C/Nc1ccccc1O)c1ccc(NC(=S)Nc2ccc(S(=O)(=O)Nc3ccccn3)cc2)cc1
440 nM	250 nM	O=C(/C=C/Nc1ccccc1Cl)c1ccc(NC(=S)Nc2ccc(S(=O)(=O)Nc3ccccn3)cc2)cc1
660 nM	390 nM	CCOC(=O)c1ccc(N/C=C/C(=O)c2ccc(NC(=S)Nc3ccc(S(=O)(=O)Nc4ccccn4)cc3)cc2)cc1
120 nM	70 nM	CCOC(=O)N/C=C/C(=O)c1ccc(NC(=S)Nc2ccc(S(=O)(=O)Nc3ccccn3)cc2)cc1
580 nM	300 nM	Cc1ccc(C(=O)O)c(N/C=C/C(=O)c2ccc(NC(=S)Nc3ccc(S(=O)(=O)Nc4ccccn4)cc3)cc2)c1
1600 nM		Cc1ccc(N/C=C/C(=O)c2cccc(NC(=S)Nc3ccc(S(=O)(=O)Nc4ccccn4)cc3)c2)c(C(=O)O)c1
420 nM	230 nM	O=C(/C=C/Nc1ccc(F)cc1)c1ccc(NC(=S)Nc2ccc(S(=O)(=O)Nc3ccccn3)cc2)cc1
3500 nM		CN(C)/C=C/C(=O)c1ccc(NC(=S)Nc2ccc(S(=O)(=O)Nc3ccccn3)cc2)cc1
3100 nM		O=C(/C=C/Nc1ccccn1)c1ccc(NC(=S)Nc2ccc(S(=O)(=O)Nc3ccccn3)cc2)cc1
10800 nM		COC(=O)c1c(N/C=C/C(=O)c2cccc(NC(=S)Nc3ccc(S(=O)(=O)Nc4ccccn4)cc3)c2)sc(C)c1C
8000 nM		Cc1c(N/C=C/C(=O)c2ccc(NC(=S)Nc3ccc(S(=O)(=O)Nc4ccccn4)cc3)cc2)c(=O)n(-c2ccccc2)n1C
1500 nM		CCOC(=O)c1ccc(N/C=C/C(=O)c2cccc(NC(=S)Nc3ccc(S(=O)(=O)Nc4ccccn4)cc3)c2)cc1
6900 nM		CC(=O)c1ccc(NC(=S)Nc2ccc(S(=O)(=O)Nc3ccccn3)cc2)cc1
11400 nM		Cc1c(N/C=C/C(=O)c2cccc(NC(=S)Nc3ccc(S(=O)(=O)Nc4ccccn4)cc3)c2)c(=O)n(-c2ccccc2)n1C
290 nM	160 nM	COC(=O)/C=C(/C)N/C=C/C(=O)c1ccc(NC(=S)Nc2ccc(S(=O)(=O)Nc3ccccn3)cc2)cc1
5500 nM		O=S(=O)(Nc1ccccn1)c1ccc(N=C=S)cc1
6200 nM		COC(=O)c1c(N/C=C/C(=O)c2ccc(NC(=S)Nc3ccc(S(=O)(=O)Nc4ccccn4)cc3)cc2)sc(C)c1C
500 nM		O=C(/C=C/Nc1ccccc1Cl)c1cccc(NC(=S)Nc2ccc(S(=O)(=O)Nc3ccccn3)cc2)c1
5000 nM		CC(=O)c1cccc(NC(=S)Nc2ccc(S(=O)(=O)Nc3ccccn3)cc2)c1
5500 nM		CN(C)/C=C/C(=O)c1cccc(NC(=S)Nc2ccc(S(=O)(=O)Nc3ccccn3)cc2)c1
2500 nM		O=C(/C=C/NCc1ccccc1)c1cccc(NC(=S)Nc2ccc(S(=O)(=O)Nc3ccccn3)cc2)c1
4700 nM		O=C(/C=C/Nc1ccccn1)c1cccc(NC(=S)Nc2ccc(S(=O)(=O)Nc3ccccn3)cc2)c1
1500 nM		COC(=O)/C=C(/C)N/C=C/C(=O)c1cccc(NC(=S)Nc2ccc(S(=O)(=O)Nc3ccccn3)cc2)c1
1060 nM		CNC(=O)c1cc(Oc2ccc(NC(=O)Nc3ccc(Cl)c(C(F)(F)F)c3)cc2)ccn1 [SORAFENIB]
